Measured values reported in publication PMC9705739, “Canagliflozin, characterized as a HDAC6 inhibitor, inhibits gastric cancer metastasis” (Frontiers in Oncology, 2022).

Target: T1, HDAC6 (Homo sapiens, UniProt Q9UBN7)
T1 sequence (Q9UBN7 1-1215): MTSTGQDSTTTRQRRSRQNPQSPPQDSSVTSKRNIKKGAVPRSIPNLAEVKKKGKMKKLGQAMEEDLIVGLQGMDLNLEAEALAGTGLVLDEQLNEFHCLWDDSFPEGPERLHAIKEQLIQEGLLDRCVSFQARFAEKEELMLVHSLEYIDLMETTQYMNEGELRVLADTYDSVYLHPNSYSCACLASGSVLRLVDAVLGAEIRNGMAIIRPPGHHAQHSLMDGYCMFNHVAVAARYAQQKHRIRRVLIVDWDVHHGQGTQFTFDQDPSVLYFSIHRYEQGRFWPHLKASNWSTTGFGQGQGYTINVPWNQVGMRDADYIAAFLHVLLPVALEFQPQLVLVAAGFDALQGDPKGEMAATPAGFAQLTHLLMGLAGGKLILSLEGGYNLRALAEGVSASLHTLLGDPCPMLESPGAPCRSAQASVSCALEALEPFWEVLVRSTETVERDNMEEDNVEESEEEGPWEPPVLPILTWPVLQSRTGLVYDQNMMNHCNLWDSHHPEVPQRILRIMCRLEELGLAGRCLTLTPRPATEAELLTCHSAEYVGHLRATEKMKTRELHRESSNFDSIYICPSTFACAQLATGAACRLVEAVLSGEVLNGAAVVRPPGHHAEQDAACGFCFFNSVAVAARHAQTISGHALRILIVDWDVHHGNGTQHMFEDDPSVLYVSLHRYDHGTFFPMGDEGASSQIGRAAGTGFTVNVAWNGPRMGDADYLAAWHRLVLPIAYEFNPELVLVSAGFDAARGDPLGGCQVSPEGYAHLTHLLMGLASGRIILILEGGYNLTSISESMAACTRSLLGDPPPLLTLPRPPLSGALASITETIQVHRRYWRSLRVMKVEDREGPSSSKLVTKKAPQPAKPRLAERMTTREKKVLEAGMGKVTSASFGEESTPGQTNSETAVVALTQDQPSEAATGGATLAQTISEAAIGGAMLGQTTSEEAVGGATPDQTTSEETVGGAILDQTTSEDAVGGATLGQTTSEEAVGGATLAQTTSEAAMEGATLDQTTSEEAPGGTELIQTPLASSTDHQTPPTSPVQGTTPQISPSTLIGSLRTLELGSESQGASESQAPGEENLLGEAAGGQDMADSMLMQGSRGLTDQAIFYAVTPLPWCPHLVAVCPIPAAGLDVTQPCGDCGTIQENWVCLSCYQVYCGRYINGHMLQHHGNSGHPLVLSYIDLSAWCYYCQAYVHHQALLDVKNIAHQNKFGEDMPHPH
Experiment: SPR (Biacore T200, immobilized HDAC6); also enzymatic inhibition IC50 […] and CETSA in MGC-803 cells
Assay type: binding

Cc1ccc([C@@H]2O[C@H](CO)[C@@H](O)[C@H](O)[C@H]2O)cc1Cc1ccc(-c2ccc(F)cc2)s1 [canagliflozin]
Kd: 859 nM
